Assay results from patent US11512089B2, “Substituted [1,2,4]triazolo[3,4-a]phthalazines as modulators of GABAA receptor activity” (SHANGHAI SIMR BIOTECHNOLOGY CO., LTD, priority 2018, dated 2022).
Values after ≈ are worked out from the molar mass of the structure shown.

Experiments:
α5-GABAA receptor = target: T1, α5-GABAA receptor (Homo sapiens, UniProt P18507+P31644); test: Whole cell patch clamp, inverse agonism efficacy on GABA-induced current in HEK-293 cells expressing α5-GABAA receptor; assay type: cell-based; conditions: HEK293; compound 100 nM, GABA 0.05 μM; ratio to reference compound Example 7 in CN106854207A in the same batch
T1 construct: expressed in transfected cells; host or cells: HEK-293 (monoclonal, stably transfected)
Description: The inventors used electrophysiological methods to determine the inverse agonist efficacy of the substances to be tested. The detailed procedures are as follows:
(1) Different subunits of GABAA receptors were expressed in human embryonic kidney cells 293 (HEK293). The cells were cultured in a culture medium and used as a cell model for screening potential analgesics. The α, β and γ subunits are necessary to form complete functional GABAA receptors. In this example, the inventors have established the following cell model: (a) α5 subunit (protein sequence is GenBank accession number: NM_000810.3), (33 subunit (protein sequence is GenBank accession number: NM_000814.5) and γ2 subunit (protein sequence is GenBank accession number: NM_000816.3) were expressed in HEK-293 cell line at the same time, followed by screening the monoclonal cell line. This cell line contained α5-GABAA receptor and had complete GABAA receptor function.
(2) The monoclonal stably transfected HEK-293 cells expressing α5-GABAA receptor were cultured in 10 cm culture dishes. The cells were passaged after reaching 80-90% confluence. During passaging, the culture medium was removed and discarded, 3 mL of DPBS (phosphate buffered saline, Gibco™) was added to the dishes, the dishes were shaken slightly, and DPBS was removed and discarded. 1 mL of trypsin (TrypLE Express, Gibco™) was added and the cells were digested at 37° C. for 1-2 minutes. Then 3 mL of complete medium (DMEM+10% FBS (Gibco™)) was added and the cells at the bottom of the culture dishes were dispersed. The cell suspension were transferred to a 15 mL centrifugal tube (Corning™) and then centrifuged at 200 g for 3 minutes. The supernatant was discarded, 4 mL of complete medium was added, and the cells were resuspended by gently blowing. The cell suspension was diluted by 1:5 or 1:10 for subculturing. The cell suspension was diluted by 1:12 for electrophysiology experiment, and added to a 24 well plate (Corning™) with a glass slide pre-treated with poly-D-lysine placed thereon; the experiment was initiated after the cells were adhered to the slide. The cells for electrophysiology experiment were maintained in culture for no more than 48 hours before use.
(3) Compound concentration: for screening, all compounds were diluted to a final concentration of 100 nM and the concentration of GABA was 0.05 μM. The compounds were at the concentration of 0.3 nM, 3 nM, 10 nM, 30 nM, 100 nM and 300 nM in dose-inverse agonism efficacy (%) experiment. The whole cell patch clamp technique was used in electrophysiology experiments, which can refer to the literature (I. Lecker, Y. Yin, D. S. Wang and B. A. Orser, (2013) Potentiation of GABAA receptor activity by volatile anaesthetics is reduced by α5-GABAA receptor-preferring inverse agonists, British Journal of Anaesthesia 110 (S1): i73-i81). The extracellular solution (ECS) contained: 150 mM NaCl, 5 mM KCl, 2.5 mM CaCl2, 1 mM MgCl2, 10 mM HEPES and 10 mM glucose (pH 7.4); Patch electrodes were filled with an intracellular solution containing: 140 mM CsCl, 11 mM EGTA, 10 mM HEPES, 2 mM CaCl2, 1 mM MgCl2, 4 mM MgATP, 2 mM TEA (pH 7.3). The currents were recorded by an EPC-10 amplifier and the PatchMaster software (HEKA). Patch electrodes with a resistance of 4-6 MΩ were pulled from borosilicate glass. The ALA-VC3-8PP™ system was used for extracellular administration. Separate cells that grew independently was selected for recording. During recording, the membrane voltage was clamped at −60 mV. During experiment, the cells were firstly perfused with ECS for 20 seconds. When the baseline reached to a stable state, the cells were then perfused with GABA solution. Then the current induced by GABA could be detected. After about 20 to 40 seconds, the current was stable. ECS was switched to compounds solution and the effects of the compounds were detected. At last, the perfusion solution was switched to ECS. […]

[1] = Kinetic solubility in 50 mM phosphate buffer pH 7.4; assay type: physicochemical; conditions: aqueous buffer, kinetic from dmso stock, 50 mM phosphate buffer pH 7.4, 2% DMSO, room temperature
Description: (§1) 50 mM phosphate buffer pH=7.4: 0.39 g of NaH2PO4.2H2O, and 1.4025 g of Na2HPO4 were weighted and placed in an erlenmeyer flask, 240 mL of water was added. The solid was dissolved and mixed thoroughly, the pH value was adjusted to 7.4 with 10M NaOH solution, and the resulting solution was transferred to a 250 mL volumetric flask, followed by adding water to the mark.
(§2) Waters e2695 HPLC high performance liquid chromatography, Mettler XSE105 analytical balance.
(§3) Firstly, a 10 mM stock solution with DMSO as the solvent was prepared, and was diluted with a diluent (ACN: PB buffer 50:50) into 1 μM-200 μM as standard solution.
Kinetic solubility. 30 μL of the stock solution was placed in a 2 mL centrifuge tube, 1470 μL of 50 mM phosphate buffer (pH 7.4) (containing DMSO at a final concentration of 2%) was added. The mixture was shaken at room temperature (1000 rpm/min) for 24 hours, and then filtered. The filtrate was tested by high performance liquid chromatography (UV).

[2] = Thermodynamic solubility in 50 mM phosphate buffer pH 7.4; assay type: physicochemical; conditions: aqueous buffer, thermodynamic from solid, 50 mM phosphate buffer pH 7.4, room temperature
Description: as §1, §2, §3
Thermodynamic solubility. About 1 mg of the sample was weighted, 1.5 mL of 50 mM phosphate buffer (pH 7.4) was added thereto, and the mixture was shaken at room temperature for 24 hours to ensure that the solution reached a state of saturation. The solution was then filtered, and the filtrate was tested with high-performance liquid chromatography (UV).

T1 sequence (P31644 32-462): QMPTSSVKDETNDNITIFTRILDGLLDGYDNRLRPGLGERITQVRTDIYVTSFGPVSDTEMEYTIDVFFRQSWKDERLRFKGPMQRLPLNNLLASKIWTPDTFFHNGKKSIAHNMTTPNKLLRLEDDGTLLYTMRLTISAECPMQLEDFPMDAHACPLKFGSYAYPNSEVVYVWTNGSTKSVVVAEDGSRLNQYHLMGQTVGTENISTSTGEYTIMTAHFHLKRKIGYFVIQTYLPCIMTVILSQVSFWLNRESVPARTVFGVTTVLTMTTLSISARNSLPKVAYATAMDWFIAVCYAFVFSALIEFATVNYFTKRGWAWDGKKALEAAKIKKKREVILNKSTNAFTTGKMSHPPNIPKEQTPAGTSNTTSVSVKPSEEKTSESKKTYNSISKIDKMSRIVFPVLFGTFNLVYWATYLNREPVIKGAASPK
T1 sequence (P28472 26-473 partner): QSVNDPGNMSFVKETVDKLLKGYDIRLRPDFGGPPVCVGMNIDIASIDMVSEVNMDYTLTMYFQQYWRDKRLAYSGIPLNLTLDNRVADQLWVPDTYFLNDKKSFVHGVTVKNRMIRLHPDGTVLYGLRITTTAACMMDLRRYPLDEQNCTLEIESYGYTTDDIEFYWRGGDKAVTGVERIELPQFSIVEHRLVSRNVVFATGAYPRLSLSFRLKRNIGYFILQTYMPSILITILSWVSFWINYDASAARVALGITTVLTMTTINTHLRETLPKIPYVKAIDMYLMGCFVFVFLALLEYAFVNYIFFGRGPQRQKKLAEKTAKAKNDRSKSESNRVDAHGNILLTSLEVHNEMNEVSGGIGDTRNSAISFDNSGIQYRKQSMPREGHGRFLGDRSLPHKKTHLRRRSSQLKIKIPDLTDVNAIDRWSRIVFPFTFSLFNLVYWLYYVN
T1 sequence (P18507 40-467 isoform P18507-1 limits assumed): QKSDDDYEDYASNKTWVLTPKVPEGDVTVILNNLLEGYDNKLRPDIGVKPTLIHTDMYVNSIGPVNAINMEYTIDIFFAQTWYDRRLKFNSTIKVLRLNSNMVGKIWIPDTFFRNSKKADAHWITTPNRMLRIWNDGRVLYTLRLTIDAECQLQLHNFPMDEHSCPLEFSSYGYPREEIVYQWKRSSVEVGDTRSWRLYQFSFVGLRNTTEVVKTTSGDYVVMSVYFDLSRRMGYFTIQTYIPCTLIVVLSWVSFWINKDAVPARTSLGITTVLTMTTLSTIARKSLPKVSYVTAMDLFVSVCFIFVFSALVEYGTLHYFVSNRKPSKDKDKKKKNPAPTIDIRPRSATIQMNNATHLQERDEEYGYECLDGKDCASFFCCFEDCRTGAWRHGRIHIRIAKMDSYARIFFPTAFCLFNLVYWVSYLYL

Compound | Emax at 0.1 µM (α5-GABAA receptor) [%] | solubility kinetic at 24 h [1] [µg/mL] | solubility thermodynamic at 24 h [2] [µg/mL]
COCc1cc(-c2nnc3c4ccccc4c(OCc4ccc(C(=O)N[C@@H](C)COC)cn4)nn23)no1 [Compound 05, (S)—N-(2-methoxy-1-methyl-ethyl)-6-[3-(5-methoxymethyl-isoxazol-3-yl)-[1,2,4]triazolo[3,4-a]phthalazin-6-yloxymethyl]-nicotinamide] | 90 | 25.6 (≈ 50.7 µM) | –
COCc1cc(-c2nnc3c4ccccc4c(OCc4ccc(C(=O)NC[C@@H]5CCCO5)cn4)nn23)no1 [Compound 06, (S)-6-[3-(5-methoxymethyl-isoxazol-3-yl)-[1,2,4]triazolo[3,4-a]phthalazin-6-yloxymethyl]-N-(tetrahydro-furan-2-ylmethyl)-nicotinamide] | 74.9 | 13.6 (≈ 26.4 µM) | –
COCCNC(=O)c1ccc(COc2nn3c(-c4cc(COC)on4)nnc3c3ccccc23)nc1 [Compound 07, N-(2-methoxy-ethyl)-6-[3-(5-methoxymethyl-isoxazol-3-yl)-[1,2,4]triazolo[3,4-a]phthalazin-6-yloxymethyl]-nicotinamide] | 108 | 23.2 (≈ 47.4 µM) | –
COCc1cc(-c2nnc3c4ccccc4c(OCc4ccc(C(=O)NC(C)COC)cn4)nn23)no1 (centres unmarked) [Compound 10, N-(2-methoxy-1-methyl-ethyl)-6-[3-(5-methoxymethyl-isoxazol-3-yl)-[1,2,4]triazolo[3,4-a]phthalazin-6-yloxymethyl]-nicotinamide] | 103 | 18.9 (≈ 37.6 µM) | –
COCc1cc(-c2nnc3c4ccccc4c(OCc4ccc(C(=O)NCC(F)(F)F)cn4)nn23)no1 [Compound 15, N-(2,2,2-trifluoroethyl)-6-((3-(5-methoxymethylisoxazol-3-yl)-[1,2,4]triazolo[3,4-a]phthalazin-6-oxy)methylene)nicotinamide] | – | 0.77 (≈ 1.5 µM) | 0.84 (≈ 1.64 µM)
COCc1cc(-c2nnc3c4ccccc4c(OCc4ccc(C(=O)NCC5COC5)cn4)nn23)no1 [Compound 18] | 115 | 10.8 (≈ 21.4 µM) | –
COCc1cc(-c2nnc3c4ccccc4c(OCc4ccc(C(=O)NCC5(C)COC5)cn4)nn23)no1 [Compound 20, N-((3-methyl(oxetanyl)-methyl)-6-{3-[5(methoxymethyl)isoxazol-3-yl]-[1,2,4]triazole[3,4-a]phthalazin-6-oxy)methylene}nicotinamide] | 118 | 10.1 (≈ 19.7 µM) | –
COCc1cc(-c2nnc3c4ccccc4c(OCc4ccc(C(=O)NC5CCC5)cn4)nn23)no1 [Compound 23] | 73.7 | 9.11 (≈ 18.8 µM) | –
COCc1cc(-c2nnc3c4ccccc4c(OCc4ccc(C(=O)NCC(F)F)cn4)nn23)no1 [Compound 24] | – | 1.39 (≈ 2.81 µM) | 0.74 (≈ 1.49 µM)
COCc1cc(-c2nnc3c4ccccc4c(OCc4ccc(C(=O)NCCC#N)cn4)nn23)no1 [Compound 28, N-(2-cyano-ethyl)-6-[3-(5-methoxymethyl-isoxazol-3-yl)-[1,2,4]triazolo[3,4-a]phthalazin-6-yloxymethyl]-nicotinamide] | 133 | 3.68 (≈ 7.6 µM) | –
COCc1cc(-c2nnc3c4ccccc4c(OCc4ccc(C(=O)NC(COC)COC)cn4)nn23)no1 [Compound 30] | 85.2 | 6.85 (≈ 12.8 µM) | –
COCc1cc(-c2nnc3c4ccccc4c(OCc4ccc(C(=O)NC56CC(C5)C6)cn4)nn23)no1 [Compound 31] | 95.1 | 4.19 (≈ 8.42 µM) | –
COCc1cc(-c2nnc3c4ccccc4c(OCc4ccc(C(=O)NC5CN(C(C)=O)C5)cn4)nn23)no1 [Compound 32] | 89.1 | 29.7 (≈ 56.3 µM) | –
COCc1cc(-c2nnc3c4ccccc4c(OCc4ccc(C(=O)N5CCC(F)(F)CC5)cn4)nn23)no1 [Compound 34] | – | 4.6 (≈ 8.59 µM) | 4.4 (≈ 8.22 µM)
COCc1cc(-c2nnc3c4ccccc4c(OCc4ccc(C(=O)N5CC6(COC6)C5)cn4)nn23)no1 [Compound 39] | 90.2 | 48.5 (≈ 94.3 µM) | –
COCc1cc(-c2nnc3c4ccccc4c(OCc4ccc(C(=O)N(C)CC5CC5)cn4)nn23)no1 [Compound 40] | 78.3 | 31.9 (≈ 63.9 µM) | –
COCc1cc(-c2nnc3c4ccccc4c(OCc4ccc(C(=O)N5C[C@@H]6C[C@H]5CO6)cn4)nn23)no1 [Compound 43] | 86.9 | 100 (≈ 195 µM) | –
COCc1cc(-c2nnc3c4ccccc4c(OCc4ccc(C(=O)N5CCC(O)CC5)cn4)nn23)no1 [Compound 45] | 88.4 | 6.93 (≈ 13.4 µM) | –
COCc1cc(-c2nnc3c4ccccc4c(OCc4ccc(C(=O)N5CCOCC5C)cn4)nn23)no1 (centres unmarked) [Compound 47, (6-(((3-(5-(methoxymethyl)isoxazol-3-yl)-[1,2,4]triazolo[3,4-a]phthalazin-6-yl)oxy)methyl)pyridin-3-yl)(3-methylmorpholino)methanone] | 72.5 | 97.8 (≈ 190 µM) | –
COCc1cc(-c2nnc3c4ccccc4c(OCc4ccc(C(=O)N5CCCC5)cn4)nn23)no1 [Compound 48] | 78.7 | 31.7 (≈ 65.3 µM) | –
COCc1cc(-c2nnc3c4ccccc4c(OCc4ccc(C(=O)N5CCOC(C)C5)cn4)nn23)no1 (centres unmarked) [Compound 54] | 77.5 | 97.9 (≈ 190 µM) | –
COCc1cc(-c2nnc3c4ccccc4c(OCc4ccc(C(=O)N5CCC6(CC5)COC6)cn4)nn23)no1 [Compound 56, {6-[3-(5-methoxymethyl-isoxazol-3-yl)-[1,2,4]triazolo[3,4-a]phthalazin-6-yloxymethyl]-pyridin-3-yl}-(2-oxa-7-aza-spiro[3.5]non-7-yl)-methanone] | 111 | 12.5 (≈ 23.1 µM) | –
CCNC(=O)c1ccc(COc2nn3c(-c4cc(C)on4)nnc3c3ccccc23)nc1 [drawing 164, reference compound] | – | 0.62 (≈ 1.44 µM) | < 0.5
Cc1cc(-c2nnc3c4ccccc4c(OCc4ccc(C(=O)N5CCOCC5)cn4)nn23)no1 [drawing 171, reference compound] | – | 1.95 (≈ 4.14 µM) | 1.7 (≈ 3.61 µM)
COCCNC(=O)c1ccc(COc2nn3c(-c4cc(C)on4)nnc3c3ccccc23)nc1 [reference compound] | – | 0.92 (≈ 2 µM) | 1.5 (≈ 3.26 µM)
